# Measured values reported in US9510593B2, “S-benzylthiouracil compounds and methods of enhancing plant root growth” (Valent BioSciences Corporation, priority 2014, dated 2016).
# “Also recorded” adds a separate entry of the source. Like-named read-outs stand apart in the source and are kept apart here.
# Legend:
# Format in all cases: in vivo
# [1] = tested on: rice; assay: Rice pouch assay: growth of primary root and shoot; conditions: for change in vivo at 10 ppm: Oryza sativa, 144 h, read-out: Percent Change in Primary Root Length in Rice; for Percent Change in Primary Root Length of Rice: linkage changes; for Shoot Length: control 2.96; for Effect on rice root growth, in words: rice pouch assay, compared to control
# Protocol: Seeds were placed in germination pouches consisting of germination paper as an insert in a gas-permeable 16×14 cm plastic pouch (CYG Pouch; Mega International, St. Paul, Minn.). In pouch solution evaluation, S-Benzylthiouracil compounds or their salts were dissolved in a small volume of DMSO and added to sterile water with a maximum of 0.5% v/v DMSO at final dilution. The S-Benzylthiouracil solution was subsequently pipetted into the growth pouch, followed by the addition of seeds of the crop being tested. The pouches were arranged in a randomized complete block design in growth racks and placed in 19-liter polycarbonate food storage containers (Rubbermaid Commercial Products, Winchester, Va.). The sealed containers were held in an upright growth cabinet maintained at 25 C with a 12 hour light: 12 hour dark photoperiod. For rice, plants were harvested at 6 d, while in mungbean and corn, the plants were harvested at 4 d post sowing. Measurements were performed on the primary root and shoot of each seedling. The growth of the primary root of rice was examined in the pouch assay system. The results of the testing, presented as percent change in root length across all S-Benzylthiouracil compounds, are shown below.
# [2] = tested on: mungbean; assay: Mungbean pouch assay: growth of primary root and shoot; conditions: for Shoot Length / Root Length: 4 days; for Shoot Length: control 4.9; for Root Length: control 6.1; for change in vivo at 10 ppm: 96 h, read-out: Percent Change in Primary Root Length of Mungbean
# Protocol: Seeds were placed in germination pouches consisting of germination paper as an insert in a gas-permeable 16×14 cm plastic pouch (CYG Pouch; Mega International, St. Paul, Minn.). In pouch solution evaluation, S-Benzylthiouracil compounds or their salts were dissolved in a small volume of DMSO and added to sterile water with a maximum of 0.5% v/v DMSO at final dilution. The S-Benzylthiouracil solution was subsequently pipetted into the growth pouch, followed by the addition of seeds of the crop being tested. The pouches were arranged in a randomized complete block design in growth racks and placed in 19-liter polycarbonate food storage containers (Rubbermaid Commercial Products, Winchester, Va.). The sealed containers were held in an upright growth cabinet maintained at 25 C with a 12 hour light: 12 hour dark photoperiod. For rice, plants were harvested at 6 d, while in mungbean and corn, the plants were harvested at 4 d post sowing. Measurements were performed on the primary root and shoot of each seedling. The growth of the primary root of mungbean was examined in the pouch assay system. The results of the testing, presented as percent change in root length across all the free S-Benzylthiouracil compounds is shown below. The following S-Benzylthiouracil compounds have benzyl substitutions as defined in Table 11 below.
# [3] = tested on: tomato; assay: Tomato petri plate assay; conditions: for Effect on tomato root growth, in words: continuous exposure; for change in vivo at 10 ppm: Solanum lycopersicum, 144 h, after 6 days of continuous exposure, read-out: Percent Increase (percent change in primary tomato root length); for Shoot Length / Root Length: 6 days after sowing; for Shoot Length: control 3.3; for Root Length: control 3.5
# Protocol: For tomato, the plants were grown in disposable (150 mm) sterile plastic petri plates (Falcon, BD Biosciences, Franklin Lakes, N.J.). In the tomato assay, a single sheet of Whatman #1 filter paper was placed at the bottom of the plate, 15 tomato seeds were added, and 10 mL of treatment solution was added. At the end of 6 d, the 10 largest seedlings were selected for measurement from each plate. In each study, a minimum of 3 replicate plates were used. In tomato, several S-Benzylthiouracil compounds were tested to determine the effects on root growth.
# [4] = 10 ppm (10 mg/L), uracil moiety substitutions, vs control
# [5] = 10 ppm (10 mg/L), uracil moiety substitutions
# [6] = 10 ppm (10 mg/L), benzyl ring substitutions, vs control
# [7] = 10 ppm equivalent, 6 days after sowing
# [8] = 10 ppm equivalent, 6 days after sowing, control 8.61
# [9] = 10 ppm (10 mg/L), benzyl ring substitutions
smiles,measurement,setting,value
Cc1cc(O)nc(SCc2ccccc2)n1 [Compound 15],Percent Change in Primary Root Length in Rice,[1]; [4],7.6%
same,change in vivo at 10 ppm,[1]; [4],7.6%
same,Shoot Length,[2]; 1 ppm,5.6 cm
same,Root Length,[2]; 1 ppm,6.9 cm
same,Shoot Length,[2]; 10 ppm,5.0 cm
same,Root Length,[2]; 10 ppm,8.5 cm
same,change in vivo at 10 ppm,[2]; [5],36.2%
same,"Effect on mungbean root (and shoot) growth, in words",[2]; mungbean pouch assay,greatest increases in mungbean root growth; also recorded: both root and shoot showed significant increases in growth
same,"Effect on tomato root growth, in words",[3],root growth inhibition
Oc1nccc(SCc2cccc(F)c2)n1 [Compound 11],change in vivo at 10 ppm,[1]; [4],10.6%
same,change in vivo at 10 ppm,[2]; [5],8.9%
same,change in vivo at 10 ppm,[3]; 10 ppm,-34.8%
same,"Effect on tomato root growth, in words",[3],root growth inhibition
COc1ccc(CSc2nccc(O)n2)cc1 [Compound 8],change in vivo at 10 ppm,[1]; [6],0.4%
"Oc1ccnc(OCc2ccccc2)n1 [Compound 24, 2-O-Benzyluracil]",Percent Change in Primary Root Length of Rice,"[1]; 10 ppm (10 mg/L), vs control",2.2%
same,Percent Change in Primary Root Length,"[2]; mungbean, 10 ppm (10 mg/L), linkage changes",−1.3%
"Cc1cc(O)nc(SCc2c(Cl)cccc2Cl)n1 [Compound 16, S-(2,6-Dichlorobenzyl)-6-methyl-2-thiouracil]",Shoot Length,[1]; [7],2.71 cm
same,Root Length,[1]; [8],9.31 cm
same,change in vivo at 10 ppm,[1]; [4],5.5%
same,change in vivo at 10 ppm,[2]; [5],6.6%
same,change in vivo at 10 ppm,[3]; 10 ppm,-7.2%
COc1cccc(CSc2nccc(O)n2)c1 [Compound 7],change in vivo at 10 ppm,[1]; [6],2.5%
same,change in vivo at 10 ppm,[2]; [9],17.5%
Oc1ccnc(SCc2ccccc2F)n1 [Compound 4],change in vivo at 10 ppm,[1]; [6],13.5%
same,change in vivo at 10 ppm,[2]; [9],17.7%
"[K+].[O-]c1ccnc(SCc2cccc(F)c2)n1 [Compound 1 K+ salt, Potassium Salt of S-(3-Fluorobenzyl)-2-thiouracil]",Root Length,"[1]; 10 mg/liter, 6 days after sowing, untreated control 9.67",11.03 cm
same,Root Length,"[1]; 30 mg/liter, 6 days after sowing, untreated control 9.67",9.71 cm
"Oc1ccnc(SCc2ccccc2)n1 [Compound 2, 2-[(phenylmethyl)thio]-4(3H)-pyrimidinone]",Root Length,"[1]; 10 mg/liter, 6 days after sowing, untreated control 10.50",12.44 cm
same,Root Length,"[1]; 30 mg/liter, 6 days after sowing, untreated control 10.50",12.21 cm
same,Root Length,"[1]; 1 ppm, 6 days after treatment, control 5.7",6.7 cm
same,Root Length,"[1]; 10 ppm, 6 days after treatment, control 5.7",7.8 cm
same,Percent Change (rice primary root growth),"[1]; 10 ppm, compounds and water-soluble salts, 6 days after sowing",15.6%
same,change in vivo at 10 ppm,[1]; [6],15.6%
same,"Effect on rice root growth, in words",[1],increased the root length compared to the control treatment
same,Percent Change in Primary Root Length of Mungbean,[2]; [9],18.9%
same,change in vivo at 10 ppm,[2]; [9],18.9%
same,Shoot Length,[3]; 1 ppm,3.3 cm
same,Root Length,[3]; 1 ppm,3.8 cm
same,Shoot Length,[3]; 10 ppm,3.0 cm
same,Root Length,[3]; 10 ppm,3.8 cm
same,change in vivo at 10 ppm,[3]; 10 ppm,23%
same,"Effect on tomato root growth, in words",[3],one of the most active compounds in tomato; also recorded: root length was increased in a dose-dependent fashion
same,"Effect on tomato root growth, in words",[3]; listed as S-Benzylthiouracil,active at promoting root growth
"Oc1ccnc(SCc2cc(F)cc(F)c2)n1 [Compound 6, S-(3,5-Difluorobenzyl)-2-thiouracil]",change in vivo at 10 ppm,[1]; [6],8.8%
same,change in vivo at 10 ppm,[2]; [9],3%
Oc1ccnc(SC/C=C/c2ccccc2)n1 [Compound 23],Percent Change in Primary Root Length of Rice,"[1]; 10 ppm (10 mg/L), vs control",2.3%
same,"Effect on rice root growth, in words",[1],modest enhancements in root growth
same,change in vivo at 10 ppm,[3]; 10 ppm,-15.7%
Oc1ccnc(SCc2ccc(F)cc2)n1 [Compound 3],Shoot Length,[1]; [7],2.59 cm
same,Root Length,[1]; [8],9.38 cm
same,change in vivo at 10 ppm,[1]; [6],13.9%
same,change in vivo at 10 ppm,[2]; [9],10.4%
same,change in vivo at 10 ppm,[3]; 10 ppm,2.8%
O=c1cc[nH]c(=O)[nH]1 [Uracil],change in vivo at 10 ppm,[3]; 10 ppm,-21%
